Experiments:
Format in all cases: cell-based, human
[1] = test system: mTOR; assay: Immunoblotting of mpPHH for P-S6RP and P-P70S6K (mTOR activation); settings: NTF3
Experimental: Mouse passaged primary human hepatocytes. Mouse-passaged primary human hepatocytes (mpPHHs) were collected as previously described (Michailidis et al., Proc Natl Acad Sci USA. 2020; 117(3): 1678-1688) and cultured in hepatocyte culture media (CC-3198, Lonza, Basel, Switzerland) in collagen-coated chamber slides. Three days before treatment, mpPHH were incubated in William's E media (with L-glutamine). […] 5-15 images per treatment per experiment were randomly taken and EdU positive nuclei quantified.
(§1) Immunoblotting. […] Protein concentration of supernatants was determined by Direct Detect Spectrophotometer (MilliporeSigma, Burlington, MA). […] The protein concentration of supernatants was determined by a Direct Detect® spectrophotometer (MilliporeSigma, Burlington, MA). For immunoblot analysis, 10 to 50 μg of protein diluted in […] sample buffer (Invitrogen, Waltham, MA) were analyzed per SDS-polyacrylamide gel electrophoresis (NuPAGE™, Invitrogen, Waltham, MA) using Mops buffer or MES buffer (Invitrogen, Waltham, MA). […] Semi-quantitative band densitometry was performed using ImageJ software (version 1.53).

[2] = test system: CCND1 and PCNA; assay: Immunoblotting of HDOs for CCND1 and PCNA; settings: NTF3
Experimental: Human ductal organoids. The normal human liver tissue was obtained through the Cooperative Human Tissue Network (CHTN) at Vanderbilt University Medical Center. The liver was cut into very small pieces in liver digestion medium (Gibco, Waltham, MA; 17703-034). The cell suspension was filtered through a 100-μm cell strainer. The flow through was then centrifuged for 2 min at 100 g, 4° C., and the cell pellet resuspended in ice-cold DMEM (Gibco, Waltham, MA; 11885-084, supplemented by 5% FBS) and centrifuged for 2 min at 300 g. The cell pellet was gently resuspended in Matrigel® (Corning, Corning, NY; 356231) and a […] dome plated in a 24-well plate. The plate was incubated for 10-15 min at 37° C. […]
as §1

[3] = test system: HepG2 cells; assay: Cell proliferation assay (CellTiter-Glo) in HepG2 cells; settings: NTF3 20 ng/ml, HepG2 (FIG. 8G-H)
Experimental: Cell lines. Human HepG2 (ATCC HB-8065) were maintained in MEM media with 10% FBS and the mouse hepatocyte cell line AML12 (ATCC, Manassas, VA; CRL-2254) in DMEM/F12 media supplemented with dexamethasone (40 ng/ml) and Insulin-Transferrin-Selenium (Gibco, Waltham, MA; 41400045), containing 10% FBS and 1% penicillin and streptomycin. JS1 (RRID: CVCL_C7PL), LX2 (RRID: CVCL_5792, MilliporeSigma, Burlington, MA; SCC064) and TWNT4 (RRID: CVCL_W296) cells were cultured in DMEM supplemented with 10% FBS. 293T cells (ATCC, Manassas, VA; CRL-3216) were cultured in DMEM supplemented with 10% FBS.
Cell proliferation assays. Primary mouse hepatocytes, HepG2 or AML 12 cells were grown in opaque-walled 96-well plates. NTF3 (final concentration 20 ng/ml) (STEMCELL Technologies, Vancouver, Canada; cat. 78074) and/or Loxo-195 (final concentration 5 nM) (Selleckchem, Houston, TX; S8636) were added into complete growth media without L-glutamine. Primary mouse hepatocytes were also grown in serum-free William's E media without supplements. Cells were analyzed by CellTiter-Glo® (Promega G7570, Madison, WI) which detects the number of viable cells on day 0 to day 5 by on detection systems GloMax® (Promega) or Bioteck Synergy H1 (Agilent, Santa Clara, CA). Mouse recombinant HGF (Abcam, Cambridge, UK; ab281797) was added to cell culture media at a final concentration 5 ng/ml. […]

**Q.** What does the source list for “NTF3: neurotrophin-3, recombinant protein; HSC-derived hepatocyte mitogen, ligand of TRKA, TRKB, TRKC”?
**A.** levels of phosphorylated P-S6RP Ser240/244 and P-pS70SK Thr389 [1]: increased levels; CCND1 and PCNA (immunoblotting) [2]: induced CCND1 and PCNA; cell proliferation [3]: greatly stimulated cell proliferation

Source: patent US20250346643A1, “TROPOMYOSIN KINASE RECEPTOR (TRK) LIGANDS AS THERAPEUTICS TO SUPPORT LIVER REGENERATION” (Vanderbilt University, priority 2024, published 2025)
